The values below are quoted from earlier work in patent US12453351B2, “Herbicide compatibility improvement” (Monsanto Technology LLC, priority 2005, dated 2025).

The structures appear in SMILES notation.

For this series the following is noted: at 25° C.

In the case of `O=C(O)CNCP(=O)(O)O` [Glyphosate], the Solubility in water was 1.16 % by weight.
